# Laboratory results as given in patent US9227923B2, “Pesticidal carboxamides” (Bayer Intellectual Property GmbH, priority 2009, dated 2016).
# How the values were obtained:
# Type in all cases: in vivo
# [1] = system: Two-Spotted Spider Mite (Tetranychus Urticae); assay: Test against two-spotted spider mite (Tetranychus urticae), spray; conditions: active compound concentration of 100 ppm; adult mites; after 7 days
# From the text: (§1) Solvent: 3 parts by weight of dimethylformamide
# (§2) Emulsifier: 1 part by weight of polyoxyethylene alkyl phenyl ether
# [2] = system: Tobacco Cutworm (Spodoptera litura) Larvae; assay: Test against tobacco cutworm (Spodoptera litura) larvae, leaf dip; conditions: active compound concentration of 100 ppm, third instar larvae, after 7 days
# Procedure: as §1, §2
# Leaves of sweet potato were immersed in the test solution at the appropriate concentration, and the leaves were dried in air. The leaves were then placed in a petri dish having a diameter of 9 cm, and ten Spodoptera litura at third instar larvae were released therein. The petri dishes were placed in a temperature-controlled chamber at 25° C. After 2 days and 4 days more sweet potato leaves were added. After 7 days, the number of dead larvae was counted to calculate the insecticidal activity. An insecticidal activity of 100% means that all larvae were killed, whereas an insecticidal activity of 0% means that no larva was killed.
# [3] = system: Cucurbit Leaf Beetle (Aulacophora Femoralis); assay: Test against cucurbit leaf beetle (Aulacophora femoralis), leaf dip; conditions: active compound concentration of 100 ppm, second instar larvae, after 7 days
# Procedure: as §1, §2
# Leaves of cucumber were immersed in the test solution at the appropriate concentration, and the leaves were dried in air. The leaves were then put in a plastic cup containing sterilized black soil and five Aulacophora femoralis at second instar larvae were released in the cup. The cups were placed in a temperature-controlled chamber at 25° C. After 7 days, the number of dead larvae was counted, and thus the insecticidal activity was calculated. An insecticidal activity of 100% means that all larvae were killed, whereas an insecticidal activity of 0% means that no larva was killed.
SMILES,acaricidal activity [1] [%],insecticidal activity [2] [%],insecticidal activity [3] [%],"pest or weed control at 100 ppm ([2]; Spodoptera litura, foliar, 168 h, read-out: insecticidal activity) [%]","pest or weed control at 100 ppm ([3]; Aulacophora, foliar, 168 h, read-out: insecticidal activity) [%]"
CCc1cc(C(F)(C(F)(F)F)C(F)(F)Br)cc(C)c1NC(=O)c1ccc(CNC(=O)CC2CC2)c(Cl)c1 (stereo not shown) [Compound 5-319],100,100,–,–,–
CCc1cc(C(F)(C(F)(F)F)C(F)(F)F)cc(C)c1NC(=O)c1ccc(CNC(=O)c2ccc(F)cc2)cc1 [Compound 5-36],100,100,100,–,–
CCc1cc(C(F)(C(F)(F)F)C(F)(F)C(F)(F)F)cc(C)c1NC(=O)c1ccc(CNC(=O)CC(F)(F)F)c(Cl)c1 (stereo not shown) [Compound 5-154],100,100,100,–,–
CCc1cc(C(F)(C(F)(F)F)C(F)(F)F)cc(C)c1NC(=O)c1ccc(CNC(=O)c2cccnc2Cl)c(Br)c1 [Compound 5-94],100,100,–,–,–
CCc1cc(C(F)(C(F)(F)F)C(F)(F)F)cc(C)c1NC(=O)c1ccc(CNC(=O)CC(F)(F)F)c(I)c1 [Compound 5-192],100,100,–,–,–
CCc1cc(C(F)(C(F)(F)F)C(F)(F)C(F)(F)F)cc(C)c1NC(=O)c1ccc(CNC(=O)CC2CC2)c(Cl)c1 (stereo not shown) [Compound 5-153],100,100,–,–,–
CCc1cc(C(F)(C(F)(F)F)C(F)(F)F)cc(C)c1NC(=O)c1ccc2c(c1)CCC2NC(=O)CC(F)(F)F (stereo not shown) [Compound 10-6],100,100,100,–,–
CCc1cc(C(F)(C(F)(F)F)C(F)(F)F)cc(C)c1NC(=O)c1ccc(CNC(=O)c2ccc(F)cc2)c(Br)c1 [Compound 5-92],100,–,–,–,–
CCc1cc(C(F)(C(F)(F)F)C(F)(F)F)cc(C)c1NC(=O)c1ccc(CN(C)C(=O)CC2CC2)cc1 [Compound 5-187],100,–,–,–,–
CCc1cc(C(F)(C(F)(F)F)C(F)(F)F)cc(C)c1NC(=O)c1ccc(CNC(=O)CC(F)(F)F)cc1 [Compound 5-32],100,100,–,–,–
CCc1cc(C(F)(C(F)(F)F)C(F)(F)F)cc(C)c1NC(=O)c1ccc(CNC(=O)c2cccnc2F)c(C(F)(F)F)c1 [Compound 5-112],100,100,–,–,–
Cc1cc(C(F)(C(F)(F)F)C(F)(F)F)cc(OC(F)F)c1NC(=O)c1ccc(C#N)cc1Cl [Compound I-12],100,100,100,–,–
Cc1cc(C(F)(C(F)(F)F)C(F)(F)F)cc(OC(F)F)c1NC(=O)c1ccc(CNC(=O)CC(F)(F)F)c(Cl)c1 [Compound 5-296],100,100,100,–,–
Cc1cc(C(F)(C(F)(F)F)C(F)(F)F)cc(OC(F)F)c1NC(=O)c1ccc(CNC(=O)C2CC2)c(Cl)c1 [Compound 5-341],100,100,100,–,–
CCc1cc(C(F)(C(F)(F)F)C(F)(F)Br)cc(C)c1NC(=O)c1ccc(CNC(=O)CSC)c(Cl)c1 (stereo not shown) [Compound 5-320],100,100,100,–,–
CCc1cc(C(F)(C(F)(F)F)C(F)(F)F)cc(C)c1NC(=O)c1ccc(CNC(=O)CSC)cc1 [Compound 5-33],100,–,–,–,–
CCc1cc(C(F)(C(F)(F)F)C(F)(F)F)cc(C)c1NC(=O)c1ccc(CNC(C)=O)cc1F [Compound 5-44],100,–,100,–,–
CCc1cc(C(F)(C(F)(F)F)C(F)(F)F)cc(C)c1NC(=O)c1ccc(CNC(=O)c2cccnc2F)c(Br)c1 [Compound 5-93],100,100,100,–,–
CSCC(=O)NCc1ccc(C(=O)Nc2c(Cl)cc(C(F)(C(F)(F)F)C(F)(F)C(F)(F)F)cc2Cl)cc1Cl (stereo not shown) [Compound 5-331],100,100,100,–,–
CCC(=O)NCc1ccc(C(=O)Nc2c(C)cc(C(F)(C(F)(F)F)C(F)(F)F)cc2CC)cc1 [Compound 5-29],100,100,–,–,–
CCc1cc(C(F)(C(F)(F)F)C(F)(F)Br)cc(C)c1NC(=O)c1ccc(CNC(C)=O)c(Cl)c1 (stereo not shown) [Compound 5-219],100,100,100,–,–
CCc1cc(C(F)(C(F)(F)F)C(F)(F)F)cc(C)c1NC(=O)c1ccc(CNC(=O)CC2CC2)c(Br)c1 [Compound 5-88],100,100,–,–,–

SMILES,acaricidal activity [1] [%],insecticidal activity [2] [%],insecticidal activity [3] [%],"pest or weed control at 100 ppm ([2]; Spodoptera litura, foliar, 168 h, read-out: insecticidal activity) [%]","pest or weed control at 100 ppm ([3]; Aulacophora, foliar, 168 h, read-out: insecticidal activity) [%]"
CCC(=O)NC1CCc2cc(C(=O)Nc3c(C)cc(C(F)(C(F)(F)F)C(F)(F)C(F)(F)F)cc3CC)ccc21 (stereo not shown) [Compound 10-10],100,100,–,–,–
Cc1cc(C(F)(C(F)(F)F)C(F)(F)F)cc(OC(F)F)c1NC(=O)c1ccc(CNC(=O)CC2CC2)c(Cl)c1 [Compound 5-340],100,100,–,–,–
CCc1cc(C(F)(C(F)(F)F)C(F)(F)C(F)(F)F)cc(C)c1NC(=O)c1ccc(CNC(=O)CC2CC2)c(F)c1 (stereo not shown) [Compound 5-147],100,100,–,–,–
CCc1cc(C(F)(C(F)(F)F)C(F)(F)F)cc(C)c1NC(=O)c1ccc(CNC(=O)c2cccnc2F)cc1 [Compound 5-40],100,–,100,–,–
CCC(=O)NCc1ccc(C(=O)Nc2c(Cl)cc(C(F)(C(F)(F)F)C(F)(F)F)cc2Cl)cc1 [Compound 5-224],100,–,100,–,–
CCc1cc(C(F)(C(F)(F)F)C(F)(F)F)cc(C)c1NC(=O)c1ccc(CNC(=O)CC(F)(F)F)c(C(F)(F)F)c1 [Compound 5-110],100,100,–,–,–
CCc1cc(C(F)(C(F)(F)F)C(F)(F)F)cc(C)c1NC(=O)c1ccc(CNC(C)=O)cn1 [Compound 7-2],–,100,100,–,–
CC(=O)NCc1ccc(C(=O)Nc2c(C)cc(C(F)(C(F)(F)F)C(F)(F)F)cc2Cl)cc1 [Compound 5-333],100,–,–,–,–
O=C(CC(F)(F)F)NCc1ccc(C(=O)Nc2c(Cl)cc(C(F)(C(F)(F)F)C(F)(F)C(F)(F)F)cc2Cl)cc1 (stereo not shown) [Compound 5-324],–,100,100,–,–
CCc1cc(C(F)(C(F)(F)F)C(F)(F)F)cc(C)c1NC(=O)c1ccc(CNC(=O)CC2CC2)c(Cl)c1 [Compound 5-80],100,100,–,–,–
CCc1cc(C(F)(C(F)(F)F)C(F)(F)F)cc(C)c1NC(=O)c1ccc2c(c1)CCCC2NC(C)=O (stereo not shown) [Compound 11-2],100,100,–,–,–
CCc1cc(C(F)(C(F)(F)F)C(F)(F)F)cc(C)c1NC(=O)c1ccc(CN(C)C(=O)CC(F)(F)F)cc1 [Compound 5-188],100,100,–,–,–
CCc1cc(C(F)(C(F)(F)F)C(F)(F)C(F)(F)F)cc(C)c1NC(=O)c1ccc(CNC(=O)C2CC2)c(Cl)c1 (stereo not shown) [Compound 5-152],–,100,100,–,–
CCc1cc(C(F)(C(F)(F)F)C(F)(F)F)cc(C)c1NC(=O)c1ccc(CNC(=O)C2CC2)c(Cl)c1 [Compound 5-79],–,100,100,–,–
CCC(=O)NCc1ccc(C(=O)Nc2c(C)cc(C(F)(C(F)(F)F)C(F)(F)F)cc2CC)cc1F [Compound 5-72],100,100,–,–,–
N#Cc1ccc(C(=O)Nc2c(Cl)cc(C(F)(C(F)(F)F)C(F)(F)C(F)(F)F)cc2Cl)cc1 (stereo not shown) [Compound I-27],–,100,100,–,–
CCC(=O)N(C)Cc1ccc(C(=O)Nc2c(C)cc(C(F)(C(F)(F)F)C(F)(F)F)cc2CC)cc1 [Compound 5-186],100,–,–,–,–
CCc1cc(C(F)(C(F)(F)F)C(F)(F)F)cc(C)c1NC(=O)c1ccc2c(c1)CCC2NC(=O)CC1CC1 (stereo not shown) [Compound 10-5],100,100,–,–,–
CCc1cc(C(F)(C(F)(F)F)C(F)(F)F)cc(C)c1NC(=O)c1ccc(CNC(=O)CC(F)(F)F)c2ccccc12 [Compound 6-6],–,100,100,–,–
CCc1cc(C(F)(C(F)(F)F)C(F)(F)F)cc(C)c1NC(=O)c1ccc(CNC(=O)COC)c(Br)c1 [Compound 5-91],100,100,–,–,–
"CC(=O)NCc1ccc(C(=O)Nc2c(Cl)cc(C(F)(C(F)(F)F)C(F)(F)F)cc2Cl)cc1Cl [Compound 5-229, 4-(acetamidemethyl)-3-chloro-N-[2,6-dichloro-4-(1,1,1,2,3,3,3-heptafluoropropan-2-yl)phenyl]benzamide]",–,–,–,100,100
